Source: US20060073504A1, “Treatment of pain by inhibition of caspase signaling” (The Regents of the University of California, priority 2004, published 2006)
“Also recorded” adds a separate entry of the source. Where a name gives a salt, the structure may show the parent alone. Read-outs that look alike come from different tables or passages of the source. * marks the point of attachment. Cbz = O=C(OCc1ccccc1)*; CH2F = FC*

How the values were obtained:
[1] = test system: mechanical hyperalgesia induced by 2′,3′-dideoxycytidine (ddC); assay: ddC-induced mechanical hyperalgesia, paw-withdrawal threshold (Ugo Basile Analgesymeter); assay type: in vivo, rat; conditions: inhibitor 5 μg i.d. hind paw, day 5 after ddC 50 mg/kg i.v., read 30 min after inhibitor, p<0.05
Experimental: (§1) Experiments were performed on 220-260-g male Sprague-Dawley rats (Charles River, Fremont, Calif., USA). Rats were housed in groups of 2 under a 12-h light-dark cycle. Food and water were available ad libitum. Experiments were carried out in accordance with NIH regulations for the care and use of animals in research, and under approval of the Institutional Animal Care and Use Committee of the University of California, San Francisco.
(§2) The nociceptive mechanical flexion reflex was quantified with an Ugo Basile Analgesymeter® (Stoelting, Chicago, Ill.), which applies a linearly increasing mechanical force to the dorsum of the rat's hind paw. Mechanical paw-withdrawal thresholds were determined in control (saline treated) and test agent treated rats. Four readings were taken at 5-min intervals and the mean of the last three readings were used to define the baseline paw-withdrawal threshold (Aley and Levine, 1999; Aley et al., 2001). The time at which the readings were taken was based on the time course of each test agent (described in results).
(§3) Algesic agents employed in this study were: vincristine sulfate (VCR), 2′,3′-dideoxycytidine (ddC), streptozotocin sulfate (STZ), tumor necrosis factor-α (TNFα) prostaglandin E2 (PGE2), epinephrine (Epi) (Sigma, St. Louis, Mo.) and N-Acetyl Sphingosine (C2-Ceramide obtained from Upstate USA, Inc, Lake Placid, N.Y.). Doses of the algesic agents were, VCR (200 μg/kg), ddC (50 mg/kg), STZ (50 mg/kg), PGE2 (100 ng/paw) and Epi (100 ng/paw). A single i.v. injection of VCR (200 μg/kg) produced significant mechanical hyperalgesia (>30 % reduction in paw-withdrawal threshold). This effect reached maximum on day 5 following the drug administration and was persistent for more then 15 days (Joseph, 2003 #5). STZ (50 mg/kg, i.v.×1), induced diabetes in rats, as indicated by with a blood glucose level >300 mg/dL, and a nociceptive threshold reduction (>30%). This effect reached maximum on day 3 following administration of the neuropathy inducing drug and was persistent for over 15 days (Joseph, 2003 #4).
(§4) TNFα, C2-Ceramide, PGE2, Epi, and all the inhibitors (see Table I) were administered intradermally (i.d.) on the dorsal surface of the hind paw in a volume of 2.5-5.0 μl, via a 30-gauge hypodermic needle. In co-injection experiments, agents were separated by very small air pockets, in one syringe, so that they could be administered with a single cutaneous needle penetration. As a control, all inhibitors were studied for independent effects on baseline nociceptive threshold. Inhibitors were either co-injected (with TNFα, C2-Ceramide, PGE2, and Epi) or administered on day five following the administration of VCR, ddC and STZ. Drugs were either dissolved in saline (VCR, ddC, STZ, TNF-α, PGE2, Epi) or in 10% DMSO (C2-Ceramide and inhibitors).
(§5) Group data are presented as % reduction in nociceptive threshold (mean+/±SEM) and comparisons between groups performed using Student's t-test (paired or unpaired, as appropriate). A probability of p<0.05 was considered statistically significant.
FIG. 1 depicts the effect of inhibitors of caspases administered in the hind paw of the rat, on mechanical hyperalgesia induced by the AIDS therapy drug 2′,3′-dideoxycytidine (ddC). The effect of inhibitors of caspase 1 (BACMK), 2 (Z-VDAD-FMK), 3 (Ac-DMQD-CHO), 8 (IETD-CHO), 9 (Z-LEHD-FMK.TFA), the non-selective broad-spectrum caspase inhibitor (NS) Z-VAD-FMK and the negative control for the non-selective broad-spectrum caspase inhibitor Z-FA-FMK [NS (Con)] on the nociceptive paw-withdrawal thresholds of rats were evaluated. Paw-withdrawal thresholds were measured on the 5th day after injection of ddC and 30 min after the administration of inhibitors. N=8/group, *=p<0.05, with respect to mechanical nociceptive threshold prior to injection of the inhibitor.

[2] = test system: mechanical hyperalgesia induced by vincristine (VCR); assay: Vincristine-induced mechanical hyperalgesia, paw-withdrawal threshold; assay type: in vivo, rat; conditions: inhibitor 5 μg i.d. hind paw, day 5 after VCR 200 μg/kg i.v., read 30 min after inhibitor, p<0.05
Experimental: as §1, §2, §3, §4, §5
FIG. 2 depicts the effect of inhibitors of caspases, administered in the hind paw of the rat, on mechanical hyperalgesia induced by the cancer chemotherapy drug Vincristine (VCR). The effect of inhibitors of caspase 1, 2, 3, 8, 9, the non-selective broad-spectrum caspase inhibitor (NS) and the negative control for the non-selective broad-spectrum caspase inhibitor [NS (Con)] on the nociceptive paw-withdrawal thresholds were evaluated. Paw-withdrawal thresholds were measured on the 5th day after injection of VCR and 30 min after the administration of the inhibitors. N=8/group, *=p<0.05, with respect to the value prior to injection of the inhibitor.

[3] = test system: mechanical nociceptive threshold; assay: Effect of algesic agents on mechanical nociceptive (paw-withdrawal) threshold; assay type: in vivo, rat; conditions: for effect on mechanical nociceptive threshold, dose response: intradermal injection, TNFα 1 ng-1 μg, C2-ceramide 1 μg-20 μg; for reduction in nociceptive threshold: 100 ng/paw i.d.
Experimental: as §1, §2
Algesic agents employed in this study were: vincristine sulfate (VCR), 2′,3′-dideoxycytidine (ddC), streptozotocin sulfate (STZ), tumor necrosis factor-α (TNFα) prostaglandin E2 (PGE2), epinephrine (Epi) (Sigma, St. Louis, Mo.) and N-Acetyl Sphingosine (C2-Ceramide obtained from Upstate USA, Inc, Lake Placid, N.Y.). Doses of the algesic agents were, VCR (200 μg/kg), ddC (50 mg/kg), STZ (50 mg/kg), PGE2 (100 ng/paw) and Epi (100 ng/paw).
Inhibitors of caspases and neutral sphingomyelinase are described in Table I, which is repeated for convenience. The doses of TNFα (100 ng) and C2-Ceramide (10 μg) were based on dose response experiments performed as part of this study. VCR, STZ, and ddC were administered intravenously (i.v.) in a volume of 1 ml/kg, followed by 0.5 ml saline. Control rats received equal volume of saline.
as §4
FIG. 3 depicts: A. Dose response (1 ng-1 μg) curve for the effect of TNF-α on mechanical nociceptive threshold, and B. Onset and time course of mechanical hyperalgesia induced by 100 ng of TNF-α. N=6/group.
FIG. 5 depicts the dose response (1-20 μg) curve for the effect of ceramide on the mechanical nociceptive threshold. N=6/group.

[4] = test system: mechanical hyperalgesia induced by TNF-α; assay: TNFα-induced mechanical hyperalgesia, inhibitors co-injected; assay type: in vivo, rat; conditions: read at 30 min
Experimental: as §1, §2
Inhibitors of caspases and neutral sphingomyelinase are described in Table I, which is repeated for convenience. The doses of TNFα (100 ng) and C2-Ceramide (10 μg) were based on dose response experiments performed as part of this study. VCR, STZ, and ddC were administered intravenously (i.v.) in a volume of 1 ml/kg, followed by 0.5 ml saline. Control rats received equal volume of saline. […]
FIG. 4 depicts the effect of inhibitors of caspases and sphingomyelinase on mechanical hyperalgesia induced by tumor necrosis factor alpha (TNF-α). The effect of inhibitors of caspase 1, 2, 3, 8, 9, the non-selective broad-spectrum caspase inhibitor (NS), the negative control for the non-selective broad-spectrum caspase inhibitor [NS (Con)], and the neutral sphingomyelinase inhibitor (GW4869) on the nociceptive paw-withdrawal thresholds of rats was evaluated. The inhibitors were co-injected with TNF-α and the paw-withdrawal thresholds measured 30 min after the drug administration. […]

[5] = test system: mechanical nociceptive threshold; conditions: cited from earlier work
[6] = STZ 50 mg/kg i.v. ×1; cited from earlier work
[7] = test system: mechanical hyperalgesia induced by ceramide; assay: C2-ceramide-induced mechanical hyperalgesia, inhibitors co-injected; assay type: in vivo, rat; conditions: inhibitor 5 μg co-injected i.d. with C2-ceramide 10 μg, read at 1 hr; p<0.05
Experimental: as §1, §2
Inhibitors of caspases and neutral sphingomyelinase are described in Table I, which is repeated for convenience. […]
FIG. 6 depicts the effect of inhibitors of caspases on mechanical hyperalgesia induced by ceramide. […] The inhibitors were co-injected with ceramide and paw-withdrawal thresholds measured 1 hr after the drug administration. […]

[8] = single i.v. injection: VCR 200 μg/kg, STZ 50 mg/kg
[9] = listed as inhibitor of caspase 3

CC(C)(C)OC(=O)N[C@@H](CC(=O)OCc1ccccc1)C(=O)CCl [BACMK, Boc-Asp(Obzl)-CMK]
effect on ddC-induced mechanical hyperalgesia [1]: significantly attenuated hyperalgesia | effect on vincristine-induced mechanical hyperalgesia [2]: significantly attenuated hyperalgesia

CCCCCCCCCCCCC/C=C/[C@@H](O)[C@H](CO)NC(C)=O [C2-ceramide, N-Acetyl Sphingosine]
effect on mechanical nociceptive threshold, dose response [3]: dose-dependent hyperalgesia

CNC[C@H](O)c1ccc(O)c(O)c1 [Epi, epinephrine]
reduction in nociceptive threshold [3]: significant reduction in nociceptive threshold

O=C(/C=C/c1ccc(/C=C/C(=O)Nc2ccc(C3=NCCN3)cc2)cc1)Nc1ccc(C2=NCCN2)cc1 [GW4869]
effect on TNFα-induced hyperalgesia ([4]; sphingomyelinase inhibitor 1 μg co-injected i.d. with TNFα 100 ng): markedly attenuated

CCCCC[C@H](O)/C=C/[C@H]1[C@H](O)CC(=O)[C@@H]1C/C=C\CCCC(=O)O [PGE2, prostaglandin E2]
reduction in nociceptive threshold [3]: significant reduction in nociceptive threshold

CN(N=O)C(=O)N[C@@H]1[C@@H](O)[C@H](O)[C@@H](CO)O[C@@H]1O [STZ, streptozotocin sulfate]
day of maximum hyperalgesic effect after drug administration [5, 8]: 3 days | blood glucose level [6]: > 300 mg/dL

CC[C@]1(O)C[C@H]2CN(CCc3c([nH]c4ccccc34)[C@@](C(=O)OC)(c3cc4c(cc3OC)N(C=O)[C@H]3[C@@](O)(C(=O)OC)[C@H](OC(C)=O)[C@]5(CC)C=CCN6CC[C@]43[C@@H]65)C2)C1 [VCR, vincristine sulfate]
day of maximum hyperalgesic effect after drug administration [5, 8]: 5 days

Nc1ccn([C@H]2CC[C@@H](CO)O2)c(=O)n1 [ddC, 2′,3′-dideoxycytidine]
reduction in nociceptive threshold ([5]; single dose ddC 50 mg/kg i.v., from day 1): significant reduction in nociceptive threshold | persistence of hyperalgesia ([5]; single i.v. injection: VCR 200 μg/kg, STZ 50 mg/kg, ddC 50 mg/kg): over 20 days

Ac-Asp-Met-Gin-Asp-CHO [Ac-DMQD-CHO]
effect on ddC-induced mechanical hyperalgesia [1, 9]: significantly reversed mechanical hyperalgesia; also recorded: markedly attenuating ddC hyperalgesia | effect on vincristine-induced mechanical hyperalgesia [2, 9]: significantly reversed mechanical hyperalgesia; also recorded: only moderately attenuated

Cbz-VD(OMe)VAD(OMe)-CH2F [Z-VDAD-FMK]
effect on ddC-induced mechanical hyperalgesia [1]: significantly attenuated hyperalgesia | effect on vincristine-induced mechanical hyperalgesia [2]: significantly attenuated hyperalgesia

IETD-CHO
effect on ddC-induced mechanical hyperalgesia [1]: significantly attenuated hyperalgesia | effect on vincristine-induced mechanical hyperalgesia [2]: significantly attenuated hyperalgesia

TNFα
latency to onset of hyperalgesia ([3]; TNFα 100 ng i.d.): approximately 5 minutes | time course of hyperalgesia ([3]; TNFα 100 ng i.d., at 3 hours): not attenuated at 3 hours | effect on mechanical nociceptive threshold, dose response [3]: dose-dependent (1 ng-1 μg) decrease in mechanical nociceptive threshold

Z-Leu-Glu(OMe)-His-Asp-(OMe)FMK [Z-LEHD-FMK.TFA]
effect on ddC-induced mechanical hyperalgesia [1]: significantly attenuated hyperalgesia | effect on vincristine-induced mechanical hyperalgesia [2]: significantly attenuated hyperalgesia

Z-Phe-Ala-CH2F [Z-FA-FMK]
effect on TNFα-induced hyperalgesia ([4]; inhibitor 5 μg co-injected i.d. with TNFα 100 ng, p<0.05): not | effect on C2-ceramide-induced hyperalgesia [7]: not
